“Also recorded” adds a separate entry of the source.
Conditions: electrodes comprising the ionic liquid in the reference electrode membrane; ISO 10993-5:2009 (E) and ISO 10993-12:2021 (E)
Method: An evaluation of the acute cytotoxicity of the reference electrode components was performed.
Cytotoxicity-based biocompatibility tests were performed according to the procedures of ISO 10993-5:2009 (E) and ISO 10993-12:2021 (E) standards.

Compound | acute cytotoxicity
1-ethyl-3-methylimidazolium bis(trifluoromethyl sulfonyl)imide | no significant toxicity; also recorded: lowest cytotoxicity
CC(=O)[O-].CCCCn1cc[n+](C)c1 [1-butyl-3-methylimidazolium acetate] | no significant toxicity
CCCCn1cc[n+](C)c1.[Cl-] [1-butyl-3-methylimidazolium chloride] | no significant toxicity
CCCCn1cc[n+](C)c1.F[P-](F)(F)(F)(F)F [1-butyl-3-methylimidazolium hexafluorophosphate] | no significant toxicity
choline acetate | no significant toxicity
choline phosphate | no significant toxicity

Source: patent US20250302343A1, “AN ELECTRODE ARRAY FOR MEASURING THE PH OF ANIMAL TISSUES, A PROBE […] AN ARRAY, AND AN ASSEMBLY COMPRISING SAID PROBE” (QUANTUM I[…]. Z O.O., priority 2022, published 2025)
